Experimental data published in patent US20250296961A1, “ANTIMICROBIAL PEPTIDES FOR REMINERALIZATION OF TEETH AND PREVENTION OF DENTAL CARIES” (The University of Hong Kong, priority 2021, published 2025).
Where two headings read alike, the source gives them in different places. Residues, ends and D or L forms follow the SMILES beside them. No end group written: not given here.

Experiments:
[1] = for Peptide concentration incubated in human saliva: 37° C.; for Stability: summary grade
Description: (§1) The collected saliva samples were centrifuged at 12,000 rpm for 20 min^21]. The supernatant was filtered to remove any debris. […] At 0, 0.5, 1, 2, 4, and 6 h, 40 uL solutions were taken from each sample and were analysed by High Performance Liquid Chromatography (HPLC-UV, 1525 Binary HPLC Pump, 2489 UV/Visible Detector, Waters, USA).

in vitro [2] = details: human, human saliva (centrifuged, filtered supernatant)
Description: as §1

in vitro [3] = details: mouse, MC3T3-E1 cells
Description: (§2) Cells exposed to α-MEM without peptide was the control group. Cells viability after peptide exposure was evaluated by cell survival rate using Cell Counting Kit-8 assay (CCK-8 assay, Sigma-Aldrich, St. Louis, USA).

[4] = Stability of 8DSS-C8-P-113 hydrogel on tooth surface in flow water (BCA); assay type: physicochemical; details: 16 μM mL^−1, flow water 30 mL h-1, 2 h
Description: 20 μL of 16 μM mL^−1 solution of 8DSS-C8-P-113 was applied to the tooth surface (N=5), and self-formed a layer of hydrogel sticking to the bottom of a hand-made instrument (FIG. 2J). To simulate the average human salivary flow rate, a stable flow of deionized water at a rate of 30 mL h-1 was provided using a Syringe Pump (LSP02-1B Double Channel inject/extract, China). The drained liquid, approximately 15 mL, was collected every 30 min. A sample of 100 μL of 16 μM mL^−1 solution of 8DSS-C8-P-113 was added to 15 mL of deionized water to serve as the 0 min sample. After 2 h, the drained liquids collected at 30 min, 60 min, 90 min, and 120 min were tested for their concentrations using Pierce BCA Protein Assay Kit (Rockford, IL).

S. mutans = system: S. mutans; parameters: species or system Sprague-Dawley rats; details: rat, in vivo
Description: The rat caries model was conducted under the protocol approved by the Ethics Committee of Anhui Medical University, China (ref. no. LLSC20232002) in accordance with national and international guidelines to minimise animal suffering. Ten male specific pathogen-free Sprague-Dawley rats aged 6 weeks were selected. The rats were provided with appropriate antibiotics (ampicillin, chloramphenicol, and carbencillin 1.0 g/kg/day) in the drinking water for 3 days. […] The infection was confirmed by oral swabbing and culturing on mitis salivarius-bacitracin (MSB) agar plates. The infected animals were randomly assigned into two groups (N=10): 16 μM mL^−1 of 8DSS-C8-P-113 in 10 mM HEPES (pH=7, n=5) and 10 mM HEPES (n=5, control group). Animals in each group were treated with 150 μL of the respective treatment topically using dental bonding brush for 2 min once daily for 4 weeks. […] The severity of caries was evaluated by the Keyes' scoring system which categorizes caries as enamel only (E), dentin exposed ¼ to ¾ (Ds), or more than ¾ dentin affected (Dm). The rats' weights were recorded to monitor for signs of toxicity. Additionally, various tissues from gingiva, palate, heart, liver, spleen, lung, and kidney were collected, stained with hematoxylin and eosin (H&E), and histopathologically analysed.

Description for MC3T3-E1 cells: as §2

In the case of `CC(C)C[C@H](NC(=O)[C@H](CCCNC(=N)N)NC(=O)[C@H](Cc1ccccc1)NC(=O)[C@H](Cc1ccccc1)NC(=O)[C@@H](NC(=O)[C@H](COP(=O)(O)O)NC(=O)[C@@H](N)COP(=O)(O)O)[C@@H](C)O)C(=O)N[C@@H](Cc1ccccc1)C(=O)N[C@@H](CC(N)=O)C(=O)N[C@@H](CCCNC(=N)N)C(=O)N[C@@H](C)C(=O)N[C@@H](CCCCN)C(=O)N[C@@H](CCCNC(=N)N)C(=O)N[C@@H](Cc1c[nH]cn1)C(=O)N[C@@H](Cc1c[nH]cn1)C(=O)NCC(=O)N[C@@H](Cc1ccc(O)cc1)C(=O)N[C@@H](CCCCN)C(=O)N[C@@H](CCCNC(=N)N)C(=O)N[C@@H](CCCCN)C(=O)N[C@@H](Cc1ccccc1)C(=O)N[C@@H](Cc1c[nH]cn1)C(=O)O` [DPS-C8-P-113] (HELM PEPTIDE1{[N[C@@H](COP(=O)(O)O)C(=O)[*:2]].[O=C([C@H](COP(=O)(O)O)N[*:1])[*:2]].T.F.F.R.L.F.N.R.A.K.R.H.H.G.Y.K.R.K.F.H}$$$$V2.0), the “Peptide concentration incubated in human saliva” value (shortened to “Peptide concentration incubated”) ([1]; 0 h) is reported as 1 mg/mL, the “Peptide concentration incubated” value ([1]; 0.5 h) is reported as 0.9818 mg/mL and the “Peptide concentration incubated” value ([1]; 1 h) is reported as 0.9785 mg/mL. For the same compound, the “Peptide concentration incubated” value ([1]; 2 h) was 0.9504 mg/mL, the “Peptide concentration incubated” value ([1]; 4 h) was 0.5388 mg/mL and the “Peptide concentration incubated” value ([1]; 6 h) was 0.562 mg/mL. The Stability [1] was “++”, the Cytocompatibility (MC3T3-E1 cells) was “+” and the remaining at 6 h, 1 mg mL^−1 (in vitro [2]) was 56.2%. The viability at 24 h, 2 ×MBC (in vitro [3]) was 48%.
With “DSSDSSDSSDSSDSSDSSDSSDSSTFFRLFNRAKRHHGYKRKFH [8DSS-C8-P-113]” the “Hydrogel remaining on the tooth surface (of initial status)” value [4] was “over 80%”, the “Hydrogel remaining on the tooth surface (of initial status)” value ([4]; listed as 8DSS-C8-P-113 hydrogel) was “approximately 82.15%” and the “Histopathology analysis (H&E)” value (S. mutans) was “No signs of inflammatory reaction, proliferative changes, or necrosis”. For the same compound, the “Peptide concentration incubated” value ([1]; 0 h) was 1 mg/mL, the “Peptide concentration incubated” value ([1]; 0.5 h) was 0.9942 mg/mL and the “Peptide concentration incubated” value ([1]; 1 h) was 0.987 mg/mL. The “Peptide concentration incubated” value ([1]; 2 h) was 0.9885 mg/mL, the “Peptide concentration incubated” value ([1]; 4 h) was 0.8991 mg/mL and the “Peptide concentration incubated” value ([1]; 6 h) was 0.894 mg/mL. The Stability [1] was “+++”, the Cytocompatibility (MC3T3-E1 cells) was “++” and the remaining at 6 h, 1 mg mL^−1 (in vitro [2]) was 89.4%.
